Data from publication PMC5218480 (PLoS ONE, 2017).

System: MV-4-11 cells
Test: Gene expression microarray analysis (Affymetrix PrimeView) and GSEA
Type: cell-based, human
Design: RFU PODN (11730768_x_at) / Fold change /veh PODN (11730768_x_at) / RFU LINC00158 (11744669_a_at) / Fold change /veh LINC00158 (11744669_a_at) / RFU DUSP10 (11751237_a_at) / Fold change /veh DUSP10 (11751237_a_at) / RFU ID3 (11757404_x_at) / Fold change /veh ID3 (11757404_x_at) / RFU PLEKHG5 (11737974_s_at) / Fold change /veh PLEKHG5 (11737974_s_at) / RFU LRRC4B (11730491_at) / Fold change /veh LRRC4B (11730491_at) / RFU GIMAP4 (11747438_a_at) / Fold change /veh GIMAP4 (11747438_a_at) / RFU KRT8 (11758183_x_at) / Fold change /veh KRT8 (11758183_x_at) / RFU CNN1 (11734310_a_at) / Fold change /veh CNN1 (11734310_a_at) / RFU VPS37D (11726825_at) / Fold change /veh VPS37D (11726825_at) / RFU C10orf10 (11716522_x_at) / Fold change /veh C10orf10 (11716522_x_at) / RFU KIR2DL2 /// KIR2DL4 /// KIR2DL5A /// KIR2DL5B /// KIR2DS1 /// KIR2DS2 /// KIR2DS3 /// KIR2DS4 /// KIR3DL3 /// KIR3DL3 /// KIR3DS1 (11738374_at) / Fold change /veh KIR2DL2 /// KIR2DL4 /// KIR2DL5A /// KIR2DL5B /// KIR2DS1 /// KIR2DS2 /// KIR2DS3 /// KIR2DS4 /// KIR3DL3 /// KIR3DL3 /// KIR3DS1 (11738374_at) / RFU C1QL1 (11718748_at) / Fold change /veh C1QL1 (11718748_at) / RFU TMPRSS4 (11747572_a_at) / Fold change /veh TMPRSS4 (11747572_a_at) / RFU HAMP (11756126_x_at) / Fold change /veh HAMP (11756126_x_at) / RFU RNFT2 (11725882_a_at) / Fold change /veh RNFT2 (11725882_a_at) / RFU NR4A2 (11747474_a_at) / Fold change /veh NR4A2 (11747474_a_at) / RFU ABCC12 (11746883_a_at) / Fold change /veh ABCC12 (11746883_a_at) / RFU TMEM136 (11760407_x_at) / Fold change /veh TMEM136 (11760407_x_at) / RFU CLDN22 /// WWC2 (11732394_at) / Fold change /veh CLDN22 /// WWC2 (11732394_at) / RFU HLA-DPB1 (11760878_x_at) / Fold change /veh HLA-DPB1 (11760878_x_at) / RFU SPINT1 (11716480_a_at) / Fold change /veh SPINT1 (11716480_a_at) / RFU GAP43 (11754022_s_at) / Fold change /veh GAP43 (11754022_s_at) / RFU A4GNT (11735810_at) / Fold change /veh A4GNT (11735810_at) / RFU PRB3 (11715151_x_at) / Fold change /veh PRB3 (11715151_x_at) / RFU TUBB4B (11761932_at) / Fold change /veh TUBB4B (11761932_at) / RFU CAPN14 (11732068_a_at) / Fold change /veh CAPN14 (11732068_a_at) / RFU TMCC2 (11721928_a_at) / Fold change /veh TMCC2 (11721928_a_at) / RFU IRGQ (11745062_a_at) / Fold change /veh IRGQ (11745062_a_at) / RFU FAM174B (11720279_a_at) / Fold change /veh FAM174B (11720279_a_at) / RFU TMPRSS4 (11748680_a_at) / Fold change /veh TMPRSS4 (11748680_a_at) / RFU FAM212B (11763350_a_at) / Fold change /veh FAM212B (11763350_a_at) / RFU PLEKHG5 (11743358_a_at) / Fold change /veh PLEKHG5 (11743358_a_at) / RFU ZSCAN30 (11745921_a_at) / Fold change /veh ZSCAN30 (11745921_a_at) / RFU CMKLR1 (11741424_a_at) / Fold change /veh CMKLR1 (11741424_a_at) / RFU LOC101060620 /// MAPK8IP1 (11723275_at) / Fold change /veh LOC101060620 /// MAPK8IP1 (11723275_at) / RFU SPTSSB (11747773_x_at) / Fold change /veh SPTSSB (11747773_x_at) / RFU PRSS12 (11739890_at) / Fold change /veh PRSS12 (11739890_at) / RFU BIN1 (11741810_x_at) / Fold change /veh BIN1 (11741810_x_at) / RFU WNT11 (11732464_a_at) / Fold change /veh WNT11 (11732464_a_at) / RFU C10orf10 (11716521_a_at) / Fold change /veh C10orf10 (11716521_a_at) / RFU C5orf56 (11738089_at) / Fold change /veh C5orf56 (11738089_at) / RFU CYB561 (11721691_x_at) / Fold change /veh CYB561 (11721691_x_at) / RFU ANKRD19P (11752326_a_at) / Fold change /veh ANKRD19P (11752326_a_at) / RFU OR2T12 /// OR2T33 /// OR2T8 (11738714_s_at) / Fold change /veh OR2T12 /// OR2T33 /// OR2T8 (11738714_s_at) / RFU VCAN (11748164_a_at) / Fold change /veh VCAN (11748164_a_at) / RFU JSRP1 (11732532_at) / Fold change /veh JSRP1 (11732532_at) / RFU KRTAP10-11 (11738290_x_at) / Fold change /veh KRTAP10-11 (11738290_x_at) / RFU MYO3A (11730013_a_at) / Fold change /veh MYO3A (11730013_a_at) / RFU EBF3 (11725865_a_at) / Fold change /veh EBF3 (11725865_a_at) / RFU CAMK2N1 (11719241_x_at) / Fold change /veh CAMK2N1 (11719241_x_at) / RFU C5orf56 (11738088_a_at) / Fold change /veh C5orf56 (11738088_a_at) / RFU OLFML3 (11715873_a_at) / Fold change /veh OLFML3 (11715873_a_at) / RFU LOC100653217 /// NTM (11731650_a_at) / Fold change /veh LOC100653217 /// NTM (11731650_a_at) / RFU MAPK11 (11762145_a_at) / Fold change /veh MAPK11 (11762145_a_at) / RFU FIZ1 (11724087_x_at) / Fold change /veh FIZ1 (11724087_x_at) / RFU OASL (11726364_x_at) / Fold change /veh OASL (11726364_x_at) / RFU SOX15 (11748057_x_at) / Fold change /veh SOX15 (11748057_x_at) / RFU CD79A (11719716_a_at) / Fold change /veh CD79A (11719716_a_at) / RFU HIST1H1D (11736915_at) / Fold change /veh HIST1H1D (11736915_at) / RFU CASKIN2 (11723855_a_at) / Fold change /veh CASKIN2 (11723855_a_at) / RFU LOC730098 (11760151_x_at) / Fold change /veh LOC730098 (11760151_x_at) / RFU OR4N2 (11742367_at) / Fold change /veh OR4N2 (11742367_at) / RFU PRRT2 (11749266_a_at) / Fold change /veh PRRT2 (11749266_a_at) / RFU SNX32 (11753110_a_at) / Fold change /veh SNX32 (11753110_a_at) / RFU CDHR5 (11726645_a_at) / Fold change /veh CDHR5 (11726645_a_at) / RFU RCAN1 (11760418_a_at) / Fold change /veh RCAN1 (11760418_a_at) / RFU FAM167A (11723789_a_at) / Fold change /veh FAM167A (11723789_a_at) / RFU FAM26E (11764081_at) / Fold change /veh FAM26E (11764081_at) / RFU ISYNA1 (11749810_s_at) / Fold change /veh ISYNA1 (11749810_s_at) / RFU ACY1 (11761880_at) / Fold change /veh ACY1 (11761880_at) / RFU 11764098_at / Fold change /veh 11764098_at / RFU SAMD14 (11745864_x_at) / Fold change /veh SAMD14 (11745864_x_at) / RFU NPB (11741838_a_at) / Fold change /veh NPB (11741838_a_at) / RFU TMPRSS6 (11731388_a_at) / Fold change /veh TMPRSS6 (11731388_a_at) / RFU KRTAP10-2 (11738614_at) / Fold change /veh KRTAP10-2 (11738614_at) / RFU ARHGAP8 /// PRR5-ARHGAP8 (11727945_x_at) / Fold change /veh ARHGAP8 /// PRR5-ARHGAP8 (11727945_x_at) / RFU KRTAP5-7 /// NADSYN1 (11734609_at) / Fold change /veh KRTAP5-7 /// NADSYN1 (11734609_at) / RFU RASL12 (11751679_a_at) / Fold change /veh RASL12 (11751679_a_at) / RFU CDKN2B (11736163_a_at) / Fold change /veh CDKN2B (11736163_a_at) / RFU PRF1 (11729649_at) / Fold change /veh PRF1 (11729649_at) / RFU, ZNF638 /// ZNF638-IT1 / Fold change vs veh, ZNF638 /// ZNF638-IT1 / RFU, PANK3 / Fold change vs veh, PANK3 / RFU, SH3YL1 / Fold change vs veh, SH3YL1 / RFU, ZEB2 / Fold change vs veh, ZEB2 / RFU, NRIP1 / Fold change vs veh, NRIP1 / RFU, PTTG1IP / Fold change vs veh, PTTG1IP / RFU, CAPN2 / Fold change vs veh, CAPN2 / RFU, MED14 / Fold change vs veh, MED14 / RFU, SNORA58 / Fold change vs veh, SNORA58 / RFU, C1orf63 / Fold change vs veh, C1orf63 / RFU, LRRFIP1 / Fold change vs veh, LRRFIP1 / RFU, NDUFAF7 / Fold change vs veh, NDUFAF7 / RFU, SLC12A2 / Fold change vs veh, SLC12A2 / RFU, IBTK / Fold change vs veh, IBTK / RFU, ESF1 / Fold change vs veh, ESF1 / Fold change vs veh, TMEM50B / RFU, TAOK1 / Fold change vs veh, TAOK1 / RFU, ACBD3 / Fold change vs veh, ACBD3 / RFU, TMA16 / Fold change vs veh, TMA16 / RFU, RWDD3 / Fold change vs veh, RWDD3 / RFU, BCAT1 / Fold change vs veh, BCAT1 / RFU, EDEM3 / Fold change vs veh, EDEM3 / RFU, TMEM33 / Fold change vs veh, TMEM33 / RFU, WDR75 / Fold change vs veh, WDR75 / RFU, AHCTF1 / Fold change vs veh, AHCTF1 / RFU, TFRC / Fold change vs veh, TFRC / RFU, ZDHHC17 / Fold change vs veh, ZDHHC17 / RFU, NOM1 / Fold change vs veh, NOM1 / RFU, ARL8B / Fold change vs veh, ARL8B / RFU, ZBTB11 / Fold change vs veh, ZBTB11 / RFU, TAMM41 / Fold change vs veh, TAMM41 / RFU, KIAA1704 /// LOC100996395 / Fold change vs veh, KIAA1704 /// LOC100996395 / RFU, ING1 / Fold change vs veh, ING1 / RFU, TRMT61B / Fold change vs veh, TRMT61B / RFU, FUBP3 / Fold change vs veh, FUBP3 / RFU, TP53 / Fold change vs veh, TP53 / RFU, TNKS2 / Fold change vs veh, TNKS2 / RFU, ZFP14 / Fold change vs veh, ZFP14 / RFU, ACTR2 / Fold change vs veh, ACTR2 / RFU, PPP3R1 / Fold change vs veh, PPP3R1 / RFU, PIK3R1 / Fold change vs veh, PIK3R1 / RFU, HNRNPA1 / Fold change vs veh, HNRNPA1 / RFU, RNF170 / Fold change vs veh, RNF170 / RFU, ZNF28 / Fold change vs veh, ZNF28 / RFU, RNGTT / Fold change vs veh, RNGTT / RFU, OGT / Fold change vs veh, OGT / RFU, BRD1 / Fold change vs veh, BRD1 / RFU, MARS / Fold change vs veh, MARS / RFU, ZNF655 / Fold change vs veh, ZNF655 / RFU, FAHD1 / Fold change vs veh, FAHD1 / RFU, BDP1 / Fold change vs veh, BDP1 / RFU, LRRCC1 / Fold change vs veh, LRRCC1 / RFU, ARID1A / Fold change vs veh, ARID1A / RFU, ZNF146 / Fold change vs veh, ZNF146 / RFU, ZNF330 / Fold change vs veh, ZNF330 / RFU, GPN3 / Fold change vs veh, GPN3 / RFU, C9orf123 / Fold change vs veh, C9orf123 / RFU, N4BP2L2 / Fold change vs veh, N4BP2L2 / RFU, ARFIP1 / Fold change vs veh, ARFIP1 / RFU, FAM179B / Fold change vs veh, FAM179B / RFU, BCL10 / Fold change vs veh, BCL10 / RFU, UHRF1BP1L / Fold change vs veh, UHRF1BP1L / RFU, BET1 / Fold change vs veh, BET1 / RFU, CNOT2 / Fold change vs veh, CNOT2 / RFU, ZNF268 / Fold change vs veh, ZNF268 / Fold change vs veh, ZNF507 / RFU, DGCR2 / Fold change vs veh, DGCR2 / RFU, WDSUB1 / Fold change vs veh, WDSUB1 / Fold change vs veh, HSP90B1 /// MIR3652 / RFU, ADSS / Fold change vs veh, ADSS / RFU, GK / Fold change vs veh, GK / RFU, ZNF148 / Fold change vs veh, ZNF148 / RFU, TAF9 / Fold change vs veh, TAF9 / RFU, SLC1A5 / Fold change vs veh, SLC1A5 / RFU, SLMO2 / Fold change vs veh, SLMO2 / RFU, ABCC4 / Fold change vs veh, ABCC4 / RFU, LOC101060439 /// RAP1B / Fold change vs veh, LOC101060439 /// RAP1B / RFU, RFX7 / Fold change vs veh, RFX7 / RFU, GTPBP10 / Fold change vs veh, GTPBP10 / RFU, CNEP1R1 / Fold change vs veh, CNEP1R1 / RFU, BIVM-ERCC5 /// ERCC5 / Fold change vs veh, BIVM-ERCC5 /// ERCC5 / RFU, ILF3 / Fold change vs veh, ILF3 / RFU 11762660_at / Fold change /veh 11762660_at / RFU VCAN (11757783_s_at) / Fold change /veh VCAN (11757783_s_at) / RFU DDX43 (11728927_at) / Fold change /veh DDX43 (11728927_at) / RFU KRT8 (11758188_x_at) / Fold change /veh KRT8 (11758188_x_at) / RFU NKD1 (11759106_at) / Fold change /veh NKD1 (11759106_at) / RFU SRD5A1 (11742802_a_at) / Fold change /veh SRD5A1 (11742802_a_at) / RFU TPSAB1 /// TPSB2 (11721975_s_at) / Fold change /veh TPSAB1 /// TPSB2 (11721975_s_at) / RFU GSTM3 (11746129_a_at) / Fold change /veh GSTM3 (11746129_a_at) / RFU IL23R (11737362_x_at) / Fold change /veh IL23R (11737362_x_at) / RFU TMEM51 (11727254_a_at) / Fold change /veh TMEM51 (11727254_a_at) / RFU PIWIL2 (11732686_x_at) / Fold change /veh PIWIL2 (11732686_x_at) / RFU ORM1 (11744905_x_at) / Fold change /veh ORM1 (11744905_x_at) / RFU CCDC152 (11743942_at) / Fold change /veh CCDC152 (11743942_at) / RFU ECM1 (11717891_a_at) / Fold change /veh ECM1 (11717891_a_at) / RFU IL23R (11748794_a_at) / Fold change /veh IL23R (11748794_a_at) / RFU TNFAIP8L3 (11732012_x_at) / Fold change /veh TNFAIP8L3 (11732012_x_at) / RFU MBOAT4 (11741988_at) / Fold change /veh MBOAT4 (11741988_at) / RFU 11764193_at / Fold change /veh 11764193_at / RFU TMEM53 (11763286_at) / Fold change /veh TMEM53 (11763286_at) / RFU MAGEB2 (11727129_at) / Fold change /veh MAGEB2 (11727129_at) / RFU TMEM200A (11744735_a_at) / Fold change /veh TMEM200A (11744735_a_at) / RFU CCDC152 (11751479_a_at) / Fold change /veh CCDC152 (11751479_a_at) / RFU FAM211A (11726209_a_at) / Fold change /veh FAM211A (11726209_a_at) / RFU RGS16 (11746705_a_at) / Fold change /veh RGS16 (11746705_a_at) / RFU VCAN (11755009_s_at) / Fold change /veh VCAN (11755009_s_at) / RFU RHOB (11743442_s_at) / Fold change /veh RHOB (11743442_s_at) / RFU RGS16 (11720943_a_at) / Fold change /veh RGS16 (11720943_a_at) / RFU RGS16 (11720944_at) / Fold change /veh RGS16 (11720944_at) / RFU, VPS4B / Fold change vs veh, VPS4B / RFU, CREB1 / Fold change vs veh, CREB1 / RFU, DNAJC13 / Fold change vs veh, DNAJC13 / RFU, GNAQ / Fold change vs veh, GNAQ / RFU, CDK5R1 / Fold change vs veh, CDK5R1 / RFU, ZRANB3 / Fold change vs veh, ZRANB3 / RFU, CUL4A / Fold change vs veh, CUL4A / RFU, CCNY / Fold change vs veh, CCNY / RFU, UFL1 / Fold change vs veh, UFL1 / RFU, COG3 / Fold change vs veh, COG3 / RFU, DIAPH2 / Fold change vs veh, DIAPH2 / RFU, SKA2 / Fold change vs veh, SKA2 / RFU, AFF3 / Fold change vs veh, AFF3 / RFU, LMF1 / Fold change vs veh, LMF1 / RFU, IPO11 / Fold change vs veh, IPO11 / RFU, DFFB / Fold change vs veh, DFFB / RFU, FOXP1 / Fold change vs veh, FOXP1 / RFU, CARD8 / Fold change vs veh, CARD8 / RFU, STRN3 / Fold change vs veh, STRN3 / RFU, ADK / Fold change vs veh, ADK / RFU, RASSF2 / Fold change vs veh, RASSF2 / RFU, WIPF1 / Fold change vs veh, WIPF1 / RFU, LARP1B / Fold change vs veh, LARP1B / RFU, RASA1 / Fold change vs veh, RASA1 / RFU, RB1 / Fold change vs veh, RB1 / RFU, PPFIA1 / Fold change vs veh, PPFIA1 / RFU, MAT2A / Fold change vs veh, MAT2A / RFU, CCT5 / Fold change vs veh, CCT5 / RFU, WDR92 / Fold change vs veh, WDR92 / RFU, CUX1 / Fold change vs veh, CUX1 / RFU, TTC7A / Fold change vs veh, TTC7A / RFU, TMEM135 / Fold change vs veh, TMEM135 / RFU, DEPTOR / Fold change vs veh, DEPTOR / RFU, CPM / Fold change vs veh, CPM / RFU, DNAJB6 / Fold change vs veh, DNAJB6 / RFU, CACNA2D3 / Fold change vs veh, CACNA2D3 / RFU, DTX4 / Fold change vs veh, DTX4 / RFU, TFCP2 / Fold change vs veh, TFCP2 / RFU, GMCL1 /// GMCL1P1 / Fold change vs veh, GMCL1 /// GMCL1P1 / RFU, AEBP2 / Fold change vs veh, AEBP2 / RFU, SNHG1 /// SNORD22 /// SNORD25 /// SNORD26 /// SNORD27 /// SNORD28 /// SNORD29 /// SNORD31 / Fold change vs veh, SNHG1 /// SNORD22 /// SNORD25 /// SNORD26 /// SNORD27 /// SNORD28 /// SNORD29 /// SNORD31 / Fold change (Aza/veh), C12orf56 (ProbeSet 11735607_a_at) / Fold change (ACY-1035/veh), C12orf56 (ProbeSet 11735607_a_at) / Fold change (Aza/veh), FGFR1OP (ProbeSet 11751329_s_at) / Fold change (ACY-1035/veh), FGFR1OP (ProbeSet 11751329_s_at) / Fold change (Aza/veh), VPS36 (ProbeSet 11739960_a_at) / Fold change (ACY-1035/veh), VPS36 (ProbeSet 11739960_a_at) / RFU SYPL1 (11715823_x_at) / Fold change /veh SYPL1 (11715823_x_at) / RFU IGFBP7 (11715501_s_at) / Fold change /veh IGFBP7 (11715501_s_at) / RFU REEP3 (11722064_at) / Fold change /veh REEP3 (11722064_at) / RFU IGLL1 (11728026_x_at) / Fold change /veh IGLL1 (11728026_x_at): dose or concentration left out as unconfirmed
Conditions: ProbeSet 11719632_a_at; LIST B

**Q.** How did the “RFU, ABCC4” value turn out when `Nc1ccc(-c2cccs2)cc1NC(=O)c1ccc2c(c1)cc(C1CC1)n2CCN1CCOCC1` [ACY-1035] was run?
**A.** 40.19 RFU
